Data set [1] concerns Sava lectin (Savalithsin) from Savalia (Gerardia) savaglia, isoforms SEQ ID NOs: 1, 2, 3 and 4. Description: Turbidimetric activity assay of carbohydrate binding to Sava lectin. The procedure:
Turbidimetric activity assay was performed to confirm ITC results. […] This small binding constant produces small heat effect that cannot be observed by ITC.

For data set [2] the test system is unchanged. Description: Isothermal titration calorimetry (ITC) of carbohydrate binding to Sava lectin. As to conditions: pH 7.4, 50 mM PBS, 25° C. The text has this: The present inventors have identified, purified and characterised a novel lectin from Savalia (Gerardia) savaglia. The inventors have identified four very closely-related isoforms of this lectin (see Table 1). The sequences of the isoforms are provided as SEQ ID NOs: 1, 2, 3 and 4. SEQ ID NO: 1 is the sequence of the most prevalent (dominant) form expressed in Savalia (Gerardia) savaglia (as determined by mass spectrometry). […] The lectin may be referred to herein as Sava lectin or Savalithsin. This term may be used to refer to a mixture comprising the four isoforms, which may optionally include other isoforms or variants as defined herein. References to recombinantly produced Savalithsin typically refer to the dominant form.
Isothermal titration calorimetry (ITC) experiments were performed with Sava lectin at pH 7.4 in 50 mM phosphate buffered saline (PBS) at 25° C. and in the presence of different D-carbohydrates (mono- and di-saccharides).
Thermodynamic parameters of mannose and methyl mannoside binding were obtained by algorithm for global fitting of the model function to the experimental ITC thermograms based on the iterative non-linear Levenberg-Marquardt χ2 regression procedure. The best agreement between model and experimental data was achieved when two binding sites per protein molecule were assumed.
(Isothermal titration calorimetry measures the heat released or taken up as one component is titrated into another.)

The test system is the same in data set [3]. As to the kind of experiment: Differential scanning calorimetry (DSC) of Sava lectin in the presence of carbohydrates. Type of data set: binding. To be noted: for Melting point (Tm) of Sava lectin in the presence of carbohydrate: PBS pH 7.4, Sava lectin alone Tm 79.17° C. The procedure: Experiments with differential scanning calorimetry confirmed binding of mannose and methyl mannoside, see discussion of thermal stability below.
Thermal stability was determined by differential scanning calorimetry (DSC). Experiments were performed in PBS at pH 7.4. […] Increased Tm indicates stabilization of protein structure in the presence of bound carbohydrate.
(Differential scanning calorimetry records heat flow against a reference as temperature is scanned.)

In data set [4] the target is Sava lectin (Savalithsin) from Savalia (Gerardia) savaglia, isoforms SEQ ID NOs: 1, 2, 3 and 4. As to the kind of experiment: Microscale thermophoresis (MST) of carbohydrate binding to Sava lectin. The text has this:
Microscale thermophoresis (MST) experiments confirmed binding of mannose and methyl mannoside. […] Two Km values indicate existence of two binding sites that could be different of allosterically connected.
In general terms: Microscale thermophoresis detects binding through changes in fluorescence in a small temperature gradient.

Data set [5] deals with the molecule itself. Description: MALDI-TOF mass spectrometry of Sava lectin (self-association, oligomers) [top].

Read-outs that look alike come from different tables or passages of the source.

With `OC[C@H]1OC(O)[C@H](O)[C@@H](O)[C@@H]1O` (stereo partly drawn) [D-glucose], the “Binding (turbidimetric activity assay)” value in data set [1] is “weak binding”. In addition, the “Binding constant compared with D-mannose” value in data set [1] (relative to D-mannose) is “two orders of magnitude lower than for D-mannose”. Besides, the “Binding observed using ITC” value in data set [2] is on record as “did not observed binding”.

The Kd is a measure of binding affinity in units of concentration. Take `OC[C@H]1OC(O)[C@@H](O)[C@@H](O)[C@@H]1O` (stereo partly drawn) [D-mannose]: the “Melting point (Tm) of Sava lectin in the presence of carbohydrate” value in data set [3] came to 79.63 °C. For the same molecule, the Kd in data set [4] (first of two binding events, read-out: Dissociation constant (Kd), first binding event) turned out to be 0.0265 mM; in data set [4] (second of two binding events, read-out: Dissociation constant (Kd), second binding event) it was 11.2 mM. For the same molecule, the “Binding constant (Kb)” value in data set [2] is 2514 M⁻¹.

Consider `CC(=O)N[C@H]1C(O)O[C@H](CO)[C@H](O)[C@@H]1O` (stereo partly drawn) [N-acetyl galactosamine], for which, in data set [2], the “Binding observed using ITC” value was “did not observed binding”.

Regarding `CC(=O)N[C@H]1C(O)O[C@H](CO)[C@@H](O)[C@@H]1O` (stereo partly drawn) [N-acetyl glucosamine], the “Binding observed using ITC” value in data set [2] is “did not observed binding”.

Take `O=C[C@@H](O)[C@H](O)[C@H](O)CO` [arabinose]: the “Binding observed using ITC” value in data set [2] is listed as “did not observed binding”.

As for `C[C@@H]1OC(O)[C@@H](O)[C@H](O)[C@@H]1O` (stereo partly drawn) [fucose], the “Binding observed using ITC” value in data set [2] is listed as “did not observed binding”.

Consider `OC[C@H]1OC(O)[C@H](O)[C@@H](O)[C@H]1O` (stereo partly drawn) [galactose], for which the “Tm of Sava lectin in the presence of carbohydrate, compared with Sava lectin only” value in data set [3] (PBS pH 7.4) is reported as “the same as in the experiment with Sava lectin only”. Also, in data set [2], the “Binding observed using ITC” value is reported as “did not observed binding”.

As for `OC[C@H]1O[C@@H](O[C@H]2[C@H](O)[C@@H](O)C(O)O[C@@H]2CO)[C@H](O)[C@@H](O)[C@H]1O` (stereo partly drawn) [lactose], the “Binding observed using ITC” value in data set [2] is recorded as “did not observed binding”.

For the molecule `OC[C@@H](O)[C@@H](O)[C@H](O)[C@H](O)CO` [mannitol], in data set [2], the “Binding observed using ITC” value is on record as “did not observed binding”.

Take `CO[C@H]1O[C@H](CO)[C@@H](O)[C@H](O)[C@@H]1O` [methyl alpha-D-mannoside]: the “Melting point (Tm) of Sava lectin in the presence of carbohydrate” value in data set [3] turned out to be 79.55 °C. Further, the Kd in data set [4] (read-out: Dissociation constant (Kd)) came out at 13.2 mM. For the same molecule, in data set [2], the “Binding constant (Kb)” value amounted to 1270 M⁻¹.

As for `OC[C@H]1O[C@H](OC[C@H]2O[C@H](O[C@]3(CO)O[C@H](CO)[C@@H](O)[C@@H]3O)[C@H](O)[C@@H](O)[C@@H]2O)[C@H](O)[C@@H](O)[C@H]1O` [raffinose], in data set [2], the “Binding observed using ITC” value is reported as “did not observed binding”.

With `C[C@@H]1OC(O)[C@H](O)[C@H](O)[C@H]1O` (stereo partly drawn) [rhamnose], the “Binding observed using ITC” value in data set [2] is given as “did not observed binding”.

B1: Sava lectin (isolated and purified from the coral Savalia (Gerardia) savaglia) (other)
chain: SNLRWVATSGGKVPEHAVVGGENFSGEVLYVARVRINSGLTPGKMAPSYRVAHTSYGGKEFYKSDYELITNPGWKSHIEWKYHEGHSKPTNAVLGGTDQRNLYVARFMYGDGHMLSGKVLFDYGKAYLGYNNKEYESTKFYVLVEHPSW
notes: No glycosylation or other post-translational modification was observed; also called Savalithsin
Take B1: the binding result in data set [5] is “binds”.
